Results as given in the NIST ThermoML archive (doi:10.1016/j.jct.2017.11.003).

Experiment: xn = mol fraction of the nth substance listed
Settings: 100 kPa, Liquid; for speed of sound: Frequency=2 MHz, Linear variable-path acoustic interferometer; for mass density: Vibrating tube method

Cc1ccc(Cl)cc1 [4-chlorotoluene] + CCCCCCCCCO
Settings	mass density, 293.15 K [kg/m3]	mass density, 298.15 K [kg/m3]	mass density, 303.15 K [kg/m3]	mass density, 308.15 K [kg/m3]	speed of sound, 293.15 K [m/s]	speed of sound, 298.15 K [m/s]	speed of sound, 303.15 K [m/s]	speed of sound, 308.15 K [m/s]
x1 = 0.0835	842	839	835	832	1376.5	1358.3	1346.4	1322.8
x1 = 0.1905	862	858	855	851	1369.2	1347.9	1334.9	1311.7
x1 = 0.2888	881	877	873	869	1360.5	1337.3	1323.5	1300.5
x1 = 0.3983	904	900	896	891	1350	1324.8	1310.6	1287.6
x1 = 0.4948	925	921	917	912	1340.2	1313.6	1298.7	1276.4
x1 = 0.594	949	945	940	935	1330	1303	1287.9	1266
x1 = 0.6925	974	970	965	960	1321	1294.2	1278.5	1257.4
x1 = 0.7952	1003	999	994	988	1313	1287.5	1271.4	1250.9
x1 = 0.899	1035	1031	1025	1020	1308	1284.9	1267.7	1248.9
x1 = 1	1069	1065	1060	1054	1306.4	1288.2	1270	1252.1

Cc1cccc(Cl)c1 [3-chlorotoluene] + CCCCCCCCCO
Settings	mass density, 293.15 K [kg/m3]	mass density, 298.15 K [kg/m3]	mass density, 303.15 K [kg/m3]	mass density, 308.15 K [kg/m3]	speed of sound, 293.15 K [m/s]	speed of sound, 298.15 K [m/s]	speed of sound, 303.15 K [m/s]	speed of sound, 308.15 K [m/s]
x1 = 0.0967	844	841	838	834	1374.3	1357.5	1345.4	1320.9
x1 = 0.1893	861	858	854	850	1366.3	1348.2	1335.6	1310.1
x1 = 0.2985	883	879	875	871	1355.3	1336.2	1323	1297.4
x1 = 0.3926	902	898	894	890	1345	1325.6	1310.9	1286
x1 = 0.4834	923	919	914	910	1335.2	1315.2	1300	1275.7
x1 = 0.5953	950	945	941	937	1323.7	1303.7	1288.3	1264.9
x1 = 0.6918	975	970	966	961	1315.7	1296	1280.3	1257.6
x1 = 0.7946	1004	1000	995	990	1310.2	1291.2	1274.7	1254
x1 = 0.8963	1036	1031	1027	1022	1308.7	1290.7	1273.6	1253.9
x1 = 1	1072	1067	1063	1058	1313.8	1296.5	1279.5	1261.2
